According to the supplement of paper PMC10627819:

Tests used:
Conditions in all cases: main component drawn
[1] = test system: B. subtilis 168; assay: fitness (endpoint OD595 vs no drug) (fraction); higher = more growth
In short: (§1)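 Bacterial growth was followed in 384-well plates seeded at OD595 0.01, with 30 µl per well, or 55 µl for S. pneumoniae, in TSB, LB Lennox or CY at 37 °C. OD595 was read every 30 min for 14 h, and each reading had the first reading subtracted as background. Fitness is the background-corrected optical density at entry into stationary phase divided by the robust mean of the no-drug control wells. This ratio is capped at 1.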

[2] = test system: S. aureus Newman; assay: as above
In short: as §1

[3] = test system: S. pneumoniae D39V; assay: as above
In short: as §1

[4] = test system: B. subtilis 168; assay: Bliss interaction score (quartile over a dose matrix) (fitness difference); higher = more antagonism (negative = synergy)
In short: (§2)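 Each OD595 reading at entry into stationary phase was scaled to the robust mean of the untreated wells on its plate, with a ceiling of 1. These ratios define fitness, and single-drug fitness was inferred from combinations. The Bliss score compares observed fitness with the product-based expectation and is reported as quartiles across all replicate types, technical, biological and donor/recipient.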

[5] = test system: S. aureus DSM 20231; assay: as above
In short: as §2

[6] = test system: S. aureus Newman; assay: as above
In short: as §2

[7] = test system: S. pneumoniae D39V; assay: as above
In short: as §2
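Wherever Bliss interaction score (quartile over a dose matrix) is given: first quartile when negative (synergy) and third quartile when positive (antagonism).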

CNC(C)C1CCC(N)C(OC2C(N)CC(N)C(OC3OCC(C)(O)C(NC)C3O)C2O)O1 (configuration not stated) [Gentamicin] + CCN(CC)CCOC(=O)c1ccc(N)cc1 [Procaine]
fitness
Conditions	partner 85.5 µg/mL	partner 171 µg/mL	partner 342 µg/mL
[1], first compound 0.0625 µg/mL	0.89	0.872	0.871
[1], first compound 0.25 µg/mL	0.0903	0.0388	0.109
[2], first compound 0.5 µg/mL	–	0.975	0.925
[2], first compound 1 µg/mL	–	≥ 1	0.99
[2], first compound 2 µg/mL	–	≥ 1	0.944
[3], first compound 2 µg/mL	≥ 1	0.981	0.968
[3], first compound 4 µg/mL	≥ 1	0.977	0.944
[3], first compound 8 µg/mL	0.938	0.965	0.935

fitness, [2], one replicate
Conditions	first compound 0.375 µg/mL	first compound 0.75 µg/mL	first compound 1.5 µg/mL
partner 85.5 µg/mL	≥ 1	≥ 1	≥ 1
partner 171 µg/mL	≥ 1	≥ 1	0.984
partner 342 µg/mL	≥ 1	≥ 1	≥ 1

Conditions	Bliss interaction score
[4]	-0.101
[5]	0.0726
[6]	0.0373
[7]	0.099

CNC(C)C1CCC(N)C(OC2C(N)CC(N)C(OC3OCC(C)(O)C(NC)C3O)C2O)O1 (configuration not stated) [Gentamicin] + CN1C2=CC=CC=C2N=C3C1=CC=CC3=O [Pyocyanin]
Conditions	fitness
[1], first compound 0.0625 µg/mL, partner 1.25 µg/mL	0.893
[1], first compound 0.0625 µg/mL, partner 2.5 µg/mL	0.802
[1], first compound 0.0625 µg/mL, partner 5 µg/mL	0.758
[1], first compound 0.125 µg/mL, partner 5 µg/mL	0.559
[1], first compound 0.25 µg/mL, partner 1.25 µg/mL	0.0424
[1], first compound 0.25 µg/mL, partner 2.5 µg/mL	0.038
[1], first compound 0.25 µg/mL, partner 5 µg/mL	0.0455
[2], first compound 0.5 µg/mL, partner 1.25 µg/mL	0.908
[2], first compound 0.5 µg/mL, partner 2.5 µg/mL	0.873
[2], first compound 1 µg/mL, partner 1.25 µg/mL	0.942
[2], first compound 1 µg/mL, partner 2.5 µg/mL	0.909
[2], first compound 1 µg/mL, partner 5 µg/mL	0.645
[2], first compound 2 µg/mL, partner 1.25 µg/mL	0.917
[2], first compound 2 µg/mL, partner 2.5 µg/mL	0.903
[2], first compound 2 µg/mL, partner 5 µg/mL	0.545
[3], first compound 2 µg/mL, partner 0.325 µg/mL	0.962
[3], first compound 2 µg/mL, partner 0.65 µg/mL	0.964
[3], first compound 2 µg/mL, partner 1.3 µg/mL	0.6
[3], first compound 4 µg/mL, partner 0.325 µg/mL	≥ 1
[3], first compound 4 µg/mL, partner 0.65 µg/mL	0.959
[3], first compound 4 µg/mL, partner 1.3 µg/mL	0.599
[3], first compound 8 µg/mL, partner 0.325 µg/mL	0.94
[3], first compound 8 µg/mL, partner 0.65 µg/mL	0.865
[3], first compound 8 µg/mL, partner 1.3 µg/mL	0.531

fitness, [2], one replicate
Conditions	first compound 0.375 µg/mL	first compound 0.75 µg/mL	first compound 1.5 µg/mL
partner 1.25 µg/mL	0.76	0.775	0.774
partner 2.5 µg/mL	0.791	0.776	0.783
partner 5 µg/mL	0.439	0.463	0.421

Conditions	Bliss interaction score
[4]	0.129
[5]	0.0622
[6]	0.111
[7]	-0.113

CNC(C)C1CCC(N)C(OC2C(N)CC(N)C(OC3OCC(C)(O)C(NC)C3O)C2O)O1 (configuration not stated) [Gentamicin] + CN(C)c1cc(NC(=O)CNC(C)(C)C)c(O)c2c1C[C@H]1C[C@H]3[C@H](N(C)C)C(O)=C(C(N)=O)C(=O)[C@@]3(O)C(O)=C1C2=O [Tigecycline]
Conditions	fitness
[1], first compound 0.0625 µg/mL, partner 0.039 µg/mL	0.967
[1], first compound 0.0625 µg/mL, partner 0.078 µg/mL	0.908
[1], first compound 0.0625 µg/mL, partner 0.156 µg/mL	0.907
[1], first compound 0.25 µg/mL, partner 0.039 µg/mL	0.186
[1], first compound 0.25 µg/mL, partner 0.078 µg/mL	0.0549
[1], first compound 0.25 µg/mL, partner 0.156 µg/mL	0.0589
[2], first compound 0.5 µg/mL, partner 0.039 µg/mL	0.974
[2], first compound 0.5 µg/mL, partner 0.078 µg/mL	0.949
[2], first compound 0.5 µg/mL, partner 0.156 µg/mL	0.935
[2], first compound 1 µg/mL, partner 0.039 µg/mL	0.988
[2], first compound 1 µg/mL, partner 0.078 µg/mL	≥ 1
[2], first compound 1 µg/mL, partner 0.156 µg/mL	≥ 1
[2], first compound 2 µg/mL, partner 0.039 µg/mL	≥ 1
[2], first compound 2 µg/mL, partner 0.078 µg/mL	≥ 1
[2], first compound 2 µg/mL, partner 0.156 µg/mL	≥ 1
[3], first compound 2 µg/mL, partner 0.325 µg/mL	0.94
[3], first compound 2 µg/mL, partner 0.65 µg/mL	0.9
[3], first compound 2 µg/mL, partner 1.3 µg/mL	0.909
[3], first compound 2 µg/mL, partner 2.6 µg/mL	0.897
[3], first compound 4 µg/mL, partner 0.325 µg/mL	0.943
[3], first compound 4 µg/mL, partner 0.65 µg/mL	0.945
[3], first compound 4 µg/mL, partner 1.3 µg/mL	0.96
[3], first compound 4 µg/mL, partner 2.6 µg/mL	0.903
[3], first compound 8 µg/mL, partner 0.325 µg/mL	0.971
[3], first compound 8 µg/mL, partner 0.65 µg/mL	0.911
[3], first compound 8 µg/mL, partner 1.3 µg/mL	0.977
[3], first compound 8 µg/mL, partner 2.6 µg/mL	0.858

fitness, one replicate
Conditions	first compound 0.0625 µg/mL	first compound 0.125 µg/mL	first compound 0.25 µg/mL	first compound 0.375 µg/mL	first compound 0.75 µg/mL	first compound 1.5 µg/mL
[1], partner 0.125 µg/mL	≥ 1	≥ 1	0.0664	–	–	–
[1], partner 0.25 µg/mL	0.91	0.891	0.315	–	–	–
[1], partner 0.5 µg/mL	0.965	0.879	0.21	–	–	–
[2], partner 0.039 µg/mL	–	–	–	0.935	0.933	0.953
[2], partner 0.078 µg/mL	–	–	–	0.97	≥ 1	0.966
[2], partner 0.156 µg/mL	–	–	–	≥ 1	0.969	0.964

Conditions	Bliss interaction score
[4]	0.122
[5]	-0.0407
[6]	-0.0289
[7]	0.0631

CNC(C)C1CCC(N)C(OC2C(N)CC(N)C(OC3OCC(C)(O)C(NC)C3O)C2O)O1 (configuration not stated) [Gentamicin] + CN(N=O)C(=O)N[C@@H](C=O)[C@@H](O)[C@H](O)[C@H](O)CO [Streptozotocin]
fitness
Conditions	partner 0.15 µg/mL	partner 0.3 µg/mL	partner 0.6 µg/mL	partner 1.2 µg/mL	partner 2.4 µg/mL	partner 4.8 µg/mL
[1], first compound 0.0625 µg/mL	0.949	0.952	0.956	–	–	–
[1], first compound 0.25 µg/mL	0.161	0.164	0.12	–	–	–
[2], first compound 0.5 µg/mL	0.871	0.801	0.708	–	–	–
[2], first compound 1 µg/mL	0.888	0.844	0.724	–	–	–
[2], first compound 2 µg/mL	0.898	0.856	0.732	–	–	–
[3], first compound 2 µg/mL	–	–	–	0.892	0.949	0.914
[3], first compound 4 µg/mL	–	–	–	0.93	0.966	0.949
[3], first compound 8 µg/mL	–	–	–	0.942	0.967	0.878

fitness, [2], one replicate
Conditions	first compound 0.375 µg/mL	first compound 0.75 µg/mL	first compound 1.5 µg/mL
partner 0.15 µg/mL	0.851	0.848	0.777
partner 0.3 µg/mL	0.717	0.687	0.706
partner 0.6 µg/mL	0.534	0.585	0.561

Conditions	Bliss interaction score
[4]	-0.125
[5]	-0.0423
[6]	0.0523
[7]	0.0654
